US20040242459A1 (priority 2001, published 2004)
pKd: −log10 of the molar value.

How the values were obtained:
[1] = test system: adjuvant-induced arthritis in female Lewis rats
Procedure: Nine groups of 10 rats each were injected with an emulsion containing 0.5 mg of Mycobacterium butyricum in 0.1 ml of light mineral oil, and a negative control group of 10 rats was not injected with adjuvant. Body weights, primary (injected) and contralateral (non-injected) paw volumes (determined by mercury displacement plethysmography) and lateral radiographs (obtained under Ketamine and Xylazine anesthesia) were determined before (day-1) and at various time points including 21 days following adjuvant injection. The rats were anesthetized with an intramuscular injection of 0.03-0.1 ml of a combination of Ketamine (87 mg/kg) and Xylazine (13 mg/kg) for radiographs and injection of adjuvant. Lateral to medial radiographs were made of both hind paws on days 0 and 21 for using the Faxitron (45 kVp, 30 seconds or 45 kVp, 1 second) and Kodak X-OMAT TL film, and were developed in an automatic processor. […] Specific criteria were used to establish the numerical grade of severity for each radiographic change. The maximum possible score per foot was 26. Compounds or vehicle were administered prophylactically beginning post injection of adjuvant and continuing for 21 days. The Compounds were prepared weekly, refrigerated in the dark until used, and vortex mixed immediately prior to administration. […] The liver, thymus and spleens of all rats were removed and weighed and both hind paws were removed and radiographed.
Two-factor (‘treatment’ and ‘time’) analysis of variance with repeated measures on ‘time’ were applied to the percent changes for body weight and foot volumes and to the rank-transformed radiographic total scores. A post hoc Dunnett's test was conducted to compare the effect of treatments to vehicle. A one-way analysis of variance was applied to the thymic and spleen weights followed by the Dunnett's test to compare the effect of treatments to vehicle.
Compounds or vehicle (0.5% Methocel in sterile water) were administered by oral gavage once daily for 21 days following induction of arthritis in female Lewis rats via the sub plantar injection of 0.1 ml of light mineral oil containing 0.5 mg of Mycobacterium butyricum. Control animals were not injected with adjuvant. Body weights were measured 1 day prior to (i.e. day 0) and at 14 and 21 days post induction of arthritis. The data in Table 1 represent the mean increase or decrease in body weight ±1 standard deviation for groups of 9 to 10 animals.
Compounds or vehicle (0.5% Methocel in sterile water) were administered by oral gavage once daily for 21 days following induction of arthritis in female Lewis rats via the sub plantar injection of 0.1 ml of light mineral oil containing 0.5 mg of Mycobacterium butyricum. Control animals were not injected with adjuvant.
(§1) Injected foot volumes were measured by mercury displacement plethysmography prior to induction of arthritis, and on days 4, 14 and 21 post induction of arthritis. The data represent the mean increase in foot volume ±1 standard deviation for groups of 9 to 10 animals. The extent of paw swelling in compound-treated animals was compared to the mean of that in the vehicle-treated group, and percentage inhibition was calculated for each dose level of compound.
as §1, with “Contralateral foot” for “Injected foot”, “prior to,” for “prior to induction of arthritis,”, “and at” for “and on”, “days” for “days 4,”
[…] Data represent the mean weights of organs in mg ±1 standard deviation for groups of 9 to 10 animals.
Total radiographic scores were derived from examination of lateral radiographs obtained prior to, and on day 21 post induction of arthritis.

[2] = test system: PPAR-α, PPAR-γ and PPAR-δ; experiment: Classification of ligands according to their PPAR activity (Table A); set-up: species or system human
[3] = target: T1, recombinant human PPARδ (GST-PPARδ) (Homo sapiens, UniProt Q03181); experiment: Scintillation Proximity Assay, displacement of [3H2]Compound B from PPARδ; format: binding; conditions: human PPARδ binding; read-out: IC50 (μM: SPA or BND) Delta
T1 construct: The full length human cDNAs for PPARδ and PPARα were subcloned into the pGEX-KT expression vector; made in house; host or cells: E. coli
T1 sequence (Q03181 1-441): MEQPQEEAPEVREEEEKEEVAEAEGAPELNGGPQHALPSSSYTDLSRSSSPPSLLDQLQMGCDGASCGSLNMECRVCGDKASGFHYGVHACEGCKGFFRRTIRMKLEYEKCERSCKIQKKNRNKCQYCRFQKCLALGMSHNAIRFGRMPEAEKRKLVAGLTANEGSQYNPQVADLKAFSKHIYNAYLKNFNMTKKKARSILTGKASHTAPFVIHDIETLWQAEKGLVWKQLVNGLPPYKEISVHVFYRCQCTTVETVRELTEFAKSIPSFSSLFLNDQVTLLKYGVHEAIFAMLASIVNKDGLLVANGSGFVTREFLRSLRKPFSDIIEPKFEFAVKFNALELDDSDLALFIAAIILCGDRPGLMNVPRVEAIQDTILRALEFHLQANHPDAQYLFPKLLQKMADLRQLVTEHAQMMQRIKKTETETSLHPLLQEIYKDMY
From the text: (§2) As an approach to identifying human PPAR agonists, a Scintillation Proximity Assay was used to characterize PPAR-γ, PPAR-δ, and PPAR-α ligands.
(§3) Human PPARγ2, human PPARδ and human PPARα were expressed as GST-fusion proteins in E. coli. The full length human cDNA for PPARγ 2 was subcloned into the pGEX-2 T expression vector (Amersham Pharmacia Biotech, Inc.). The full length human cDNAs for PPARδ and PPARα were subcloned into the pGEX-KT expression vector (Amersham Pharmacia Biotech, Inc.). E. coli containing the respective plasmids were propagated, induced, and harvested by centrifugation. The resuspended pellet was broken in a French press and debris removed by centrifugation. Recombinant human PPAR receptors were purified by affinity chromatography on glutathione sepharose. After application to the column, and one wash, receptor was eluted with glutathione. Glycerol (10%) was added to stabilize the receptor and aliquots were stored at −80° C.
(§4) After incubation for ˜16 h at 15° C. with shaking, the assay plates were counted in a Packard Topcount with quench correction.

[4] = target: T2, recombinant human PPARα (GST-PPARα) (Homo sapiens, UniProt Q07869); experiment: Scintillation Proximity Assay, displacement of [3H2]Compound A from PPARα; format: binding
T2 construct: The full length human cDNAs for PPARδ and PPARα were subcloned into the pGEX-KT expression vector; made in house; host or cells: E. coli
T2 sequence (Q07869 1-468): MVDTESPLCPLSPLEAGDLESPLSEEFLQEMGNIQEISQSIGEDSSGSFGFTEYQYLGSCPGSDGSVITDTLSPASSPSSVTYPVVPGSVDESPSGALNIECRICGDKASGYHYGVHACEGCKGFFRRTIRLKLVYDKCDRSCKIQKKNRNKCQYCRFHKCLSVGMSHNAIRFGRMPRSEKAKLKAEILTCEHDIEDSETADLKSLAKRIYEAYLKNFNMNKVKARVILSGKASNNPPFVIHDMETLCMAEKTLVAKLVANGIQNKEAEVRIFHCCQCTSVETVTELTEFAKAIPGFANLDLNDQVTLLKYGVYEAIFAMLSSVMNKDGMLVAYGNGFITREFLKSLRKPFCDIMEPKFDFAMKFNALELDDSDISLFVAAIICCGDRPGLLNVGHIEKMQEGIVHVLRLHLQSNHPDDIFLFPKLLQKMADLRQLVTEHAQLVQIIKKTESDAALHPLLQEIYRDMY
From the text: as §2, §3, §4

[5] = target: T3, recombinant human PPARγ (GST-PPARγ) (Homo sapiens, UniProt P37231); experiment: Scintillation Proximity Assay, displacement of [3H2]Compound A from PPARγ; format: binding; conditions: SPA, radioligand
T3 construct: The full length human cDNA for PPARγ 2 was subcloned into the pGEX-2 T expression vector; made in house; host or cells: E. coli
T3 sequence (P37231 1-505): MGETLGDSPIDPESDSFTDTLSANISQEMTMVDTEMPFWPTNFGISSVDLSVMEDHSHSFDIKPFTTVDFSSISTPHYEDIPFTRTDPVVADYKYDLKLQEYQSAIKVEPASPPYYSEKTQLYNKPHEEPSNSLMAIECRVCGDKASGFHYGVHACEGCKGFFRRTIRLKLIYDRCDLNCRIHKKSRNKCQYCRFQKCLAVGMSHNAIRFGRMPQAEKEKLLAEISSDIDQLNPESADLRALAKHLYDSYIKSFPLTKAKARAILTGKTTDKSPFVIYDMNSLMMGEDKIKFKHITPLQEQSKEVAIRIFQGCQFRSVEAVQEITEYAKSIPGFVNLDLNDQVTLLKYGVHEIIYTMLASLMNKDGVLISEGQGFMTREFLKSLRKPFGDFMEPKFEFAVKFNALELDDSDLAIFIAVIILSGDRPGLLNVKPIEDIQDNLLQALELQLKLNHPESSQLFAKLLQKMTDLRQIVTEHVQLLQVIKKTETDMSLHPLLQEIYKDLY
From the text: as §2, §3, §4

[6] = weight at necropsy, day of euthanasia 21 (Compound 1, indomethacin) or 15 (Compounds 2-6), mean ± SD

pKd [5]	pKd ([4]; SPA, radioligand)	Compound	Change in Secondary Foot Volume Day 14-0 ([1]; contralateral paw, p.o. q.d., Compounds 1, 2, 4, 6 30 mg/kg/day, Compound 3 50, Compound 5 100, indomethacin 2, mean ± SD)	Secondary Foot Volume % Inhibition Compared to Vehicle Day 14-0 ([1]; contralateral paw, same doses p.o. q.d.)	Change in Primary Foot Volume Day 4-0 ([1]; injected paw, p.o. q.d., Compounds 1, 2, 4, 6 30 mg/kg/day, Compound 3 50, Compound 5 100, indomethacin 2, mean ± SD)	Primary Foot Volume % Inhibition Compared to Vehicle Day 4-0 ([1]; injected paw, same doses p.o. q.d.)	Change in Primary Foot Volume Day 14-0 ([1]; injected paw, same doses p.o. q.d., mean ± SD)	change in body weight Day 14-0 ([1]; p.o. q.d., Compounds 1, 2, 4, 6 30 mg/kg/day, Compound 3 50, Compound 5 100, indomethacin 2 mg/kg/day, mean ± SD)	prevention of swelling of primary or secondary paws ([1]; up to day 14, rats then euthanized)	Spleen [1, 6]	Thymus [1, 6]	PPAR Activity [2]	IC50 [3]	IC50 ([4]; human PPARα binding, read-out: IC50 (μM: SPA or BND) Alpha)
		O=C(O)c1c(Sc2ccccc2)c2cc(Cl)ccc2n1Cc1ccc(Cl)cc1 [Compound 3]	869 ± 291 µL	0%	1853 ± 262 µL	0%	2606 ± 587 µL	−6.6 ± 6.1 grams	failed to prevent swelling of either the primary or secondary paws	720.5 ± 155.1 mg	152.7 ± 27.9 mg	Gamma Antagonist	> 50 µM	> 10 µM
~8.57	~8.00	CCCc1c(OCCCCOc2cccc(CC(=O)O)c2)ccc2c(-c3ccccc3)noc12 [Compound A, (3-(4-(3-phenyl-7-propyl-6-benz-[4,5]-isoxazoloxy)butyloxy))phenylacetic acid, reference compound]												
